Molecular target: Bet BRD4 full length bromo-domain protein (Homo sapiens, UniProt O60885)
Assay: Bet bromodomain TR-FRET assay (displacement of acetyl histone peptide)
Format: binding
Conditions: Bet BRD4 full length bromodomain protein, 300 nM acetyl histone peptide substrate, read-out: IC50

Row | Structure (SMILES) | IC50 [nM]
1 | CN1CCC(C(=O)Nc2cc(NS(=O)(=O)c3ccc(F)cc3F)cc3c2NC(=O)C32CCC2)CC1 [Compound 43, N-(5′-((2,4-difluorophenyl)sulfonamido)-2′-oxospiro[cyclobutane-1,3′-indolin]-yl)-1-methylpiperidine-4-carboxamide] | 600 to 1000
2 | O=C1Nc2c(CO)cc(NS(=O)(=O)c3ccc(F)cc3F)cc2C12CCC2 [Compound 69, 2,4-Difluoro-N-(7′-(hydroxymethyl)-2′-oxospiro[cyclobutane-1,3′-indolin]-5′-yl)benzenesulfonamide] | < 600
3 | O=C(Nc1cc(NS(=O)(=O)c2ccc(F)cc2F)cc2c1NC(=O)C21CCC1)c1cccnc1 [Compound 44, N-(5′-(2,4-Difluorophenylsulfonamido)-2′-oxospiro[cyclobutane-1,3′-indolin]-7′-yl)nicotinamide] | > 1000
4 | CCCN1CCC(Nc2cc(NS(=O)(=O)c3ccc(F)cc3F)cc3c2NC(=O)C32CCC2)CC1 [Compound 29, 2,4-Difluoro-N-(2′-oxo-7′-((1-propylpiperidin-4-yl)amino)spiro[cyclobutane-1,3′-indolin]-5′-yl)benzenesulfonamide] | < 600
5 | COc1ccc(S(=O)(=O)Nc2cc(Cc3ccccc3)c3c(c2)C2(CCC2)C(=O)N3)c(F)c1 [Compound 93, N-(7′-benzyl-2′-oxospiro[cyclobutane-1,3′-indolin]-5′-yl)-2-fluoro-4-methoxybenzenesulfonamide] | < 600
6 | COc1ccc(-c2cc(NS(=O)(=O)c3ccc(F)cc3F)cc3c2NC(=O)C32CCC2)cn1 [Compound 3, 2,4-Difluoro-N-(7′-(6-methoxypyridin-3-yl)-2′-oxospiro [cyclobutane-1,3′-indolin]-5′-yl)benzenesulfonamide] | 600 to 1000
7 | COc1ccccc1S(=O)(=O)Nc1cc(Oc2ccccn2)c2c(c1)C1(CCC1)C(=O)N2 [Compound 124, 2-Methoxy-N-(2′-oxo-7′-(pyridin-2-yloxy)spiro[cyclobutane-1,3′-indolin]-5′-yl)benzenesulfonamide] | < 600
8 | O=C1Nc2c(NC3CCc4cc(F)ccc43)cc(NS(=O)(=O)c3ccc(F)cc3F)cc2C12CCC2 (stereo not drawn) [Compound 26, 2,4-Difluoro-N-(7′-((5-fluoro-2,3-dihydro-1H-inden-1-yl)amino)-2′-oxospiro[cyclobutane-1,3′-indolin]-5′-yl)benzenesulfonamide] | > 1000
9 | O=C1Nc2c(NC3CCOCC3)cc(NS(=O)(=O)c3ccc(F)cc3F)cc2C12CCC2 [Compound 18, 2,4-Difluoro-N-(2′-oxo-7′-((tetrahydro-2H-pyran-4-yl)amino)spiro[cyclobutane-1,3′-indolin]-5′-yl)benzenesulfonamide] | < 600
10 | O=C(Nc1cc(NS(=O)(=O)c2ccc(F)cc2F)cc2c1NC(=O)C21CCC1)c1ccncc1 [Compound 45, N-(5′-(2,4-Difluorophenylsulfonamido)-2′-oxospiro[cyclobutane-1,3′-indolin]-7′-yl)isonicotinamide] | > 1000
11 | CC1(C)CN(Cc2ccccc2)CCC1Nc1cc(NS(=O)(=O)c2ccc(F)cc2F)cc2c1NC(=O)C21CCC1 (stereo not drawn) [Compound 36, N-(7′-((1-benzyl-3,3-dimethylpiperidin-4-yl)amino)-2′-oxospiro[cyclobutane-1,3′-indolin]-5′-yl)-2,4-difluorobenzenesulfonamide] | 600 to 1000
12 | O=C1CCC(c2cc(NS(=O)(=O)c3ccc(F)cc3F)cc3c2NC(=O)C32CCC2)CN1 (stereo not drawn) [Compound 105, 2,4-Difluoro-N-(2′-oxo-7′-(6-oxopiperidin-3-yl)spiro [cyclobutane-1,3′-indolin]-5′-yl)benzenesulfonamide] | < 600
13 | CCOc1ccccc1S(=O)(=O)Nc1cc(C(=O)NC2CCN(C)CC2)c2c(c1)C1(CCC1)C(=O)N2 [Compound 84, 5′-(2-Ethoxyphenylsulfonamido)-N-(1-methylpiperidin-4-yl)-2′-oxospiro[cyclobutane-1,3′-indoline]-7′-carboxamide] | 600 to 1000
14 | CN1CCN(C(=O)c2cc(NS(=O)(=O)c3ccc(F)cc3F)cc3c2NC(=O)C32CCC2)CC1 [Compound 47, 2,4-Difluoro-N-(7′-(4-methylpiperazine-1-carbonyl)-2′-oxospiro[cyclobutane-1,3′-indolin]-5′-yl)benzenesulfonamide] | > 1000
15 | CN1CCC(Nc2cc(NS(=O)(=O)c3ccc(F)cc3F)cc3c2NC(=O)C32CCC2)CC1 [Compound 17, 2,4-Difluoro-N-(7′-((1-methylpiperidin-4-yl)amino)-2′-oxospiro[cyclobutane-1,3′-indolin]-5′-yl)benzenesulfonamide] | < 600
16 | CC(C)(O)C1CCN(C(=O)c2cc(NS(=O)(=O)c3ccc(F)cc3F)cc3c2NC(=O)C32CCC2)CC1 [Compound 59, 2,4-Difluoro-N-(7′-(4-(2-hydroxypropan-2-yl)piperidine-1-carbonyl)-2′-oxospiro[cyclobutane-1,3′-indolin]-5′-yl)benzenesulfonamide] | > 1000
17 | O=C1Nc2c(NC3CN4CCC3CC4)cc(NS(=O)(=O)c3ccc(F)cc3F)cc2C12CCC2 (stereo not drawn) [Compound 19, 2,4-Difluoro-N-(2′-oxo-7′-(quinuclidin-3-ylamino)spiro[cyclobutane-1,3′-indolin]-5′-yl)benzenesulfonamide] | < 600
18 | O=C1CC(c2cc(NS(=O)(=O)c3ccc(F)cc3F)cc3c2NC(=O)C32CCC2)CCN1 (stereo not drawn) [Compound 104, 2,4-Difluoro-N-(2′-oxo-7′-(2-oxopiperidin-4-yl)spiro[cyclobutane-1,3′-indolin]-5′-yl)benzenesulfonamide] | < 600
19 | CC1(C)CNCCC1Nc1cc(NS(=O)(=O)c2ccc(F)cc2F)cc2c1NC(=O)C21CCC1 (stereo not drawn) [Compound 103, N-(7′-((3,3-dimethylpiperidin-4-yl)amino)-2′-oxospiro[cyclobutane-1,3′-indolin]-5′-yl)-2,4-difluorobenzenesulfonamide] | < 600
20 | O=C(c1cc(NS(=O)(=O)c2ccc(F)cc2N2CCOCC2)cc2c1NC(=O)C21CCC1)N1CCOCC1 [Compound 61, 4-Fluoro-N-(7′-(morpholine-4-carbonyl)-2′-oxospiro[cyclobutane-1,3′-indolin]-5′-yl)-2-morpholinobenzenesulfonamide] | > 1000

Second part, the molecule after the results:

Row | IC50 [nM] | Structure (SMILES)
21 | < 600 | COc1ccccc1S(=O)(=O)Nc1cc(OC2CCC(O)CC2)c2c(c1)C1(CCC1)C(=O)N2 (stereo not drawn) [Compound-208, N-(7′-((4-Hydroxycyclohexyl)oxy)-2′-oxospiro[cyclobutane-1,3′-indolin]-5′-yl)-2-methoxybenzenesulfonamide]
22 | > 1000 | COc1ccccc1S(=O)(=O)Nc1cc(C(C)C2CCCN(C)C2)c2c(c1)C1(CCC1)C(=O)N2 (single isomer, unassigned) [Compound 173, 2-Methoxy-N-(7′-(1-(1-methylpiperidin-3-yl)ethyl)-2′-oxospiro[cyclobutane-1,3′-indolin]-5′-yl)benzenesulfonamide]
23 | < 600 | COc1ccccc1S(=O)(=O)Nc1cc(OC2CCN(C(C)=O)CC2)c2c(c1)C1(CCC1)C(=O)N2 [Compound-220]
24 | < 600 | COc1cccc(F)c1S(=O)(=O)Nc1cc(OC2CCN(C)CC2)c2c(c1)C1(CCC1)C(=O)N2 [Compound-185, 2-Fluoro-6-methoxy-N-(7′-((1-methylpiperidin-4-yl)oxy)-2′-oxospiro[cyclobutane-1,3′-indolin]-5′-yl)benzenesulfonamide]
25 | < 600 | COc1ccccc1S(=O)(=O)Nc1cc(OCC2CCN(C)CC2)c2c(c1)C1(CCC1)C(=O)N2 [Compound 146, 2-Methoxy-N-(7′-((1-methylpiperidin-4-yl)methoxy)-2′-oxospiro[cyclobutane-1,3′-indolin]-5′-yl)benzenesulfonamide]
26 | < 600 | CC1CC(Oc2cc(NS(=O)(=O)c3ccc(Cl)cc3F)cc3c2NC(=O)C32CCC2)CC(C)N1C (stereo not drawn) [compound 195, 4-Chloro-2-fluoro-N-(2′-oxo-7′-((1,2,6-trimethylpiperidin-4-yl)oxy)spiro[cyclobutane-1,3′-indolin]-5′-yl)benzenesulfonamide]
27 | < 600 | COc1ccccc1S(=O)(=O)Nc1cc(OCCNC2CC2)c2c(c1)C1(CCC1)C(=O)N2 [compound 206, N-(7′-(2-(cyclopropylamino)ethoxy)-2′-oxospiro[cyclobutane-1,3′-indolin]-5′-yl)-2-methoxybenzenesulfonamide]
28 | 600 to 1000 | CC(c1ccccc1)c1cc(NS(=O)(=O)c2ccc(F)cc2F)cc2c1NC(=O)C21CCC1 (stereo not drawn) [Compound 126, 2,4-Difluoro-N-(2′-oxo-7′-(1-phenylethyl)spiro[cyclobutane-1,3′-indolin]-5′-yl)benzenesulfonamide]
29 | 600 to 1000 | COc1ccccc1S(=O)(=O)Nc1cc(OC(C)c2ccccn2)c2c(c1)C1(CCC1)C(=O)N2 (single isomer, unassigned) [Compound 150, 2-Methoxy-N-(2′-oxo-7′-(1-(pyridin-2-yl)ethoxy)spiro[cyclobutane-1,3′-indolin]-5′-yl)benzenesulfonamide]
30 | < 600 | Cn1cncc1COc1cc(NS(=O)(=O)c2ccc(Cl)cc2F)cc2c1NC(=O)C21CCC1 [Compound 160, 4-Chloro-2-fluoro-N-(7′-((1-methyl-1H-imidazol-5-yl)methoxy)-2′-oxospiro[cyclobutane-1,3′-indolin]-5′-yl)benzenesulfonamide]
31 | 600 to 1000 | CN1CCC(NC(=O)c2cc(NS(=O)(=O)c3ccc(Cl)cc3F)cc3c2NC(=O)C32CCC2)CC1 [Compound-211, 5′-((4-Chloro-2-fluorophenyl)sulfonamido)-N-(1-methylpiperidin-4-yl)-2′-oxospiro[cyclobutane-1,3′-indoline]-7′-carboxamide]
32 | < 600 | O=C1Nc2c(OC3CCNCC3F)cc(NS(=O)(=O)c3ccc(Cl)cc3F)cc2C12CCC2 (stereo not drawn) [compound 198, 4-Chloro-2-fluoro-N-(7′-((3-fluoropiperidin-4-yl)oxy)-2′-oxospiro[cyclobutane-1,3′-indolin]-5′-yl)benzenesulfonamide]
33 | < 600 | O=C1Nc2c(OCCn3cccn3)cc(NS(=O)(=O)c3ccc(Cl)cc3F)cc2C12CCC2 [Compound 161, N-(7′-(2-(1H-pyrazol-1-yl)ethoxy)-2′-oxospiro[cyclobutane-1,3′-indolin]-5′-yl)-4-chloro-2-fluorobenzenesulfonamide]

— patent publication US10336697B2, “Spiro[cyclobutane-1,3′-indolin]-2′-one derivatives as bromodomain inhibitors” (Orion Corporation, priority 2015, dated 2019)
